From ChEMBL document CHEMBL4680317, “In vitro and in vivo effects of inhibitors on actin and myosin” (Bioorg Med Chem, 2021)
Activity calls are given as the source filed them. The calls are words filed in the database; no cut-off is given here.

Assays:
MDA-MB-231 [1] = assay: Antimigratory activity against human MDA-MB-231 cells assessed as cell migration at 5 uM by light microscopy relative to control; format: functional
MDA-MB-231 [2] = assay: Antimigratory activity against human MDA-MB-231 cells assessed as minimum effective concentration by light microscopy; format: functional
[3] = Cardiotoxicity in medaka embryo post hatching 24 hrs assessed as reduction in heart beat at 17.5 uM measured after 1 hr; format: toxicity; settings: oryzias latipes
Oryctolagus cuniculus [4] = organism: Oryctolagus cuniculus; assay: Inhibition of rabbit muscle G-actin polymerization assessed as polymerized G-actin level at 25 uM incubated for 15 mins by spectrophotometric analysis (reference value: 100 %); format: tissue-based; set-up: scale not given: the % may be the effect or the level left; settings: Muscle tissue
MDA-MB-231 [5] = assay: Induction of cell morphological changes in human MDA-MB-231 cells assessed as membrane blebbing at 2 uM measured after 30 mins by inverted microscopy; format: functional, cell-based
[6] = Cardiotoxicity in medaka embryo post hatching 24 hrs assessed as reduction in heart beat at 10 uM measured after 1 hr; format: toxicity; settings: oryzias latipes
Oryctolagus cuniculus [7] = organism: Oryctolagus cuniculus; assay: Inhibition of rabbit muscle F-actin depolymerization at 50 to 100 uM incubated for 15 mins by spectrophotometric analysis; format: tissue-based; settings: Muscle tissue, dose 50-100 µM
MDA-MB-231 [8] = assay: Antimigratory activity against human MDA-MB-231 cells assessed as cell migration at 10 uM by light microscopy relative to control; format: functional
MDA-MB-231 [9] = assay: Induction of cell morphological changes in human MDA-MB-231 cells assessed as membrane blebbing at 500 nM measured after 40 sec by inverted microscopy; format: functional, cell-based
MDA-MB-231 [10] = assay: Cytotoxicity against human MDA-MB-231 cells assessed as reduction in cell viability incubated for 4 hrs by neutral red uptake assay; format: cell-based; settings: mda-mb-231, 4 h
MDA-MB-231 [11] = assay: Induction of cell morphological changes in human MDA-MB-231 cells assessed as membrane blebbing by inverted microscopy; format: functional, cell-based
MDA-MB-231 [12] = assay: Antimigratory activity against human MDA-MB-231 cells assessed as cell migration at 2.5 uM by light microscopy relative to control; format: functional
[13] = Cardiotoxicity in medaka embryo post hatching 24 hrs assessed as reduction in heart beat at 25 uM measured after 1 hr; format: toxicity; settings: oryzias latipes
Oryctolagus cuniculus [14] = organism: Oryctolagus cuniculus; assay: Inhibition of rabbit muscle F-actin depolymerization incubated for 15 mins by spectrophotometric analysis; format: tissue-based; settings: Muscle tissue, dose 25-100 µM
[15] = Cardiotoxicity in medaka embryo post hatching 24 hrs assessed as reduction in heart beat at 1.25 uM measured after 1 hr; format: toxicity; settings: oryzias latipes
MDA-MB-231 [16] = assay: Antimigratory activity against human MDA-MB-231 cells assessed as cell migration by light microscopy; format: functional, cell-based
[17] = target: Myosin light chain kinase 2, skeletal/cardiac muscle (Oryctolagus cuniculus) (UniProt P07313); assay: Inhibition of rabbit skeletal muscle myosin-2 ATPase incubated for 20 mins followed by ATP addition and measured after 20 mins; format: tissue-based; settings: Skeletal muscle tissue, time 40.0 min
Sequence of Myosin light chain kinase 2, skeletal/cardiac muscle (Oryctolagus cuniculus) (P07313 whole entry): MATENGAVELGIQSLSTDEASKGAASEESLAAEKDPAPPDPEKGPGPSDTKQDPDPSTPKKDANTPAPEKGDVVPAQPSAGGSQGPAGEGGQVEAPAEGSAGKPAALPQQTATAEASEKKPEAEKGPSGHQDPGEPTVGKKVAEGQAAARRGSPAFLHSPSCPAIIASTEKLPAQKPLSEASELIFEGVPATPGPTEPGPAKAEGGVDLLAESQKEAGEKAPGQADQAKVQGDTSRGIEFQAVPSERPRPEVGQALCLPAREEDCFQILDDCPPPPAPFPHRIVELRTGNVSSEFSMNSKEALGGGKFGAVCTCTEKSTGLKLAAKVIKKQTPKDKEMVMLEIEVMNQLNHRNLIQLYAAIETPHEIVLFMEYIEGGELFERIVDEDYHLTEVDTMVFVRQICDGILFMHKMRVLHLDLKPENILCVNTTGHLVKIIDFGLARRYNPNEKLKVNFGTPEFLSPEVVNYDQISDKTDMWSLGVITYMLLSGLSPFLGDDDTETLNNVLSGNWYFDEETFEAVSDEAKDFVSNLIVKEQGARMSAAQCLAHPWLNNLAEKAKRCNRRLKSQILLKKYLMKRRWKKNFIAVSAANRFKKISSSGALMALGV

| SMILES | Activity (MDA-MB-231 [1]) | LED (MDA-MB-231 [2]) | Activity [3] | Activity (Oryctolagus cuniculus [4]) | Activity (MDA-MB-231 [5]) | Activity [6] | inhibition (Oryctolagus cuniculus [7]) | Activity (MDA-MB-231 [8]) | Activity (MDA-MB-231 [9]) | Activity (MDA-MB-231 [10]) | Activity (MDA-MB-231 [11]) | Activity (MDA-MB-231 [12]) | Activity [13] | inhibition (Oryctolagus cuniculus [14]) | Activity [15] | inhibition (MDA-MB-231 [16]) | inhibition [17] |
| --- | --- | --- | --- | --- | --- | --- | --- | --- | --- | --- | --- | --- | --- | --- | --- | --- | --- |
| Cc1ccc2c(c1)C(=O)[C@]1(O)CCN(c3ccccc3)C1=N2 | 136.6% | 5 µM | Non-Toxic | 78.7% | inactive | Toxic | Active |  |  |  |  |  |  |  |  |  |  |
| C=C1[C@@H](C)[C@H]2[C@H](Cc3ccccc3)NC(=O)[C@]23OC(=O)/C=C/[C@H](O)CCC[C@@H](C)C/C=C/[C@H]3[C@@H]1O [CYTOCHALASIN B] |  |  |  | 43.5% |  | Non-Toxic | Active | 8.2% | Active | Toxic |  |  |  |  |  |  |  |
| Oc1cc(O)c2c(c1)O[C@H](c1cc(O)c(O)c(O)c1)[C@H](O)C2 [EPIGALLOCATECHIN] |  |  |  | 118% |  |  |  |  |  |  | inactive | inactive | Non-Toxic |  |  |  |  |
| O=c1c(O)c(-c2ccc(O)cc2)oc2cc(O)cc(O)c12 [KAEMPFEROL] |  | 2.5 µM |  | 71.8% |  |  |  |  |  |  | inactive | 70% | Non-Toxic | Dose-dependent effect |  |  |  |
| Oc1c(Br)cc(Br)cc1-c1[nH]c(Br)c(Br)c1Br [PENTABROMOPSEUDILIN] |  | 1 µM |  | 104% |  |  |  |  |  | Toxic | inactive | 67% |  |  | Toxic | Dose-dependent effect |  |
| Oc1c(Cl)cc(Cl)cc1-c1[nH]c(Cl)c(Cl)c1Cl [PENTACHLOROPSEUDILIN] |  | 1 µM |  | 38.4% |  |  |  |  |  | Toxic |  | 62.6% |  |  | Toxic | Dose-dependent effect | Dose-dependent effect |
| O=c1c(O)c(-c2ccc(O)c(O)c2)oc2cc(O)cc(O)c12 [QUERCETIN] |  |  |  | 74.5% |  |  |  |  |  |  | inactive | inactive | Non-Toxic | Dose-dependent effect |  |  |  |
